“Also recorded” adds a separate entry of the source.
Tests used:
Format in all cases: physicochemical
[1] = Absorption spectrophotometric stability investigations of the incorporated UV-A-tracers
Experimental: The long-term stability of combinations of concentrate and UV-A-tracers in the dark and under the effect of light was investigated by reference to UV spectra. The combinations below were used (Table 7): Table 7
Following storage at room temperature for 4, 8 or 12 weeks in the dark or in daylight, 1% strength dilutions of each of the preparations in water were prepared.

[2] = Stability investigations of UV-A-tracer-containing concentrates (optically visible changes on storage); conditions: clear glass bottles, room temperature, window-sill vs dark, 3 months
Excerpt: Since the UV-A-tracers are to be used for determining the active ingredient concentrations of disinfectant solutions, the UV-A-tracer-containing concentrates must be sufficiently stable throughout the entire storage life of the commercially available disinfectant concentrates (approximately 3 years). In order to investigate the stability of the UV-A-tracers, preparations 1 to 5 to which UV-A-tracers have been added were stored in clear glass bottles at room temperature firstly on a window-sill and secondly as a reference in the dark. Over a period of 3 months, the optically visible changes of the UV-A-tracer-containing preparations stored under varying conditions were observed and, at regular time intervals, 1% dilutions of these UV-A-tracer-containing preparations in water were investigated spectroscopically.

[3] = Solubility of selected UV-A-tracers in selected concentrates; conditions: for Solubilities of selected UV-A-tracers in concentrates and optically visible changes compared with the original concentrate: 0.2 g UV-A-tracer in 100 g concentrate, stirred 3 hours; for Solubility in the concentrates: all five concentrates (preparations 1 to 5)
Excerpt: Solubilities of selected UV-A-tracers in concentrates containing various active ingredient combinations (preparations 1 to 5) and optically visible changes compared with the original concentrate, "+" UV-A-tracer soluble in 100 g of preparation to at least 0.2 g, "y" the originally colourless concentrate turns yellowish as a result of the incorporation of the UV-A-tracer.

[4] = Prep.4 (Combinations of aldehydes)
[5] = Prep.5 (Quat + phenoxypropanols)
[6] = amine-containing preparations (1 and 2)

Row | SMILES | Decomposition of the UV-A-tracer ([1]; preparations 3, 4 and 5, storage in the dark and in daylight) | Changes within the observation period ([2]; in Preparation 3) | Solubilities of selected UV-A-tracers in concentrates and optically visible changes compared with the original concentrate ([3]; Prep.1 (Quat + alkylamine)) | Solubilities of selected UV-A-tracers in concentrates and optically visible changes compared with the original concentrate ([3]; Prep.2 (Quat + GuAc)) | Solubilities of selected UV-A-tracers in concentrates and optically visible changes compared with the original concentrate ([3]; Prep.3 (Quat + org. acid)) | Solubilities of selected UV-A-tracers in concentrates and optically visible changes compared with the original concentrate [3, 4] | Solubilities of selected UV-A-tracers in concentrates and optically visible changes compared with the original concentrate [3, 5] | Solubility in the concentrates [3] | Colour change on incorporation of the UV-A-tracer [3, 6] | Divergence of the absorptions between sample stored in the dark and sample exposed to daylight ([1]; in preparation 5, after 12 weeks, 1% strength dilutions in water) | Odour of the sample ([1]; in preparation 5, exposed to daylight, after 12 weeks) | Changes of the sample ([1]; in preparation 5, stored in the dark) | Changes within the observation period ([2]; in Preparation 1) | Changes within the observation period ([2]; in Preparation 2) | Changes within the observation period ([2]; in Preparation 4) | Changes within the observation period ([2]; in Preparation 5) | Colour change on incorporation of the UV-A-tracer ([3]; all preparations)
1 | COc1ccc(C(=O)c2ccccc2)c(O)c1 [Benzophenone-3, 2-Hydroxy-4-methoxybenzophenone] | In none of the three disinfectants was decomposition of benzophenone-3 observed | does not display changes of any kind and none | +y | +y | + (UV-A-tracer soluble in 100 g of preparation to at least 0.2 g) | + (UV-A-tracer soluble in 100 g of preparation to at least 0.2 g) | + (UV-A-tracer soluble in 100 g of preparation to at least 0.2 g) | dissolves without problems | intensive yellow coloration | – | – | – | – | – | – | – | –
2 | COc1cc(O)c(C(=O)c2ccccc2)cc1S(=O)(=O)O [Benzophenone-4, 2-Hydroxy-4-methoxybenzophenone-5-sulphonic acid] | – | – | +y | +y | + (UV-A-tracer soluble in 100 g of preparation to at least 0.2 g) | + (UV-A-tracer soluble in 100 g of preparation to at least 0.2 g) | + (UV-A-tracer soluble in 100 g of preparation to at least 0.2 g) | – | intensive yellow coloration | – | – | – | – | – | – | – | –
3 | COc1ccc(C(=O)c2ccc(OC)cc2O)c(O)c1 [Benzophenone-6, 2,2'-Dihydroxy-4,4'-dimethoxybenzophenone] | – | – | +y | +y | +y | + (UV-A-tracer soluble in 100 g of preparation to at least 0.2 g) | + (UV-A-tracer soluble in 100 g of preparation to at least 0.2 g) | – | intensive yellow coloration | – | – | – | – | – | – | – | –
4 | COc1cc(O)c(C(=O)c2cc(S(=O)(=O)[O-])c(OC)cc2O)cc1S(=O)(=O)[O-].[Na+].[Na+] [Benzophenone-9, 2,2'-dihydroxy-4,4'-dimethoxybenzophenone-5,5'-disodium sulphonate] | – | – | +y | +y | +y | + (UV-A-tracer soluble in 100 g of preparation to at least 0.2 g) | + (UV-A-tracer soluble in 100 g of preparation to at least 0.2 g) | – | intensive yellow coloration | – | – | – | – | – | – | – | –
5 | CC1CCC(C(C)C)C(OC(=O)c2ccccc2N)C1 (stereo not drawn) [Menthyl anthranilate, Menthyl o-aminobenzoate] | – | intensive yellow coloration | + (UV-A-tracer soluble in 100 g of preparation to at least 0.2 g) | + (UV-A-tracer soluble in 100 g of preparation to at least 0.2 g) | + (UV-A-tracer soluble in 100 g of preparation to at least 0.2 g) | + (UV-A-tracer soluble in 100 g of preparation to at least 0.2 g) | + (UV-A-tracer soluble in 100 g of preparation to at least 0.2 g) | dissolves in all preparations | – | significant divergence | intensive unpleasant odour | does not display any perceptible changes | slight yellowish tinge; also recorded: slight yellow coloration | slight yellowish tinge; also recorded: slight yellow coloration | pale yellow-green colour | from green to yellow | without visible colour changes

Reference: patent EP1192860B1, “UVA-tracer containing disinfectant and method of determining the degree of dilution of disinfectants using UVA-tracers” (Air Liquide Santé (International), priority 2000, dated 2002)
